Assays:
[1] = target: Serine/threonine-protein kinase Nek6 (Homo sapiens) (UniProt Q9HC98); experiment: Inhibition of NEK6 (unknown origin) assessed as residual activity at 100 nM by KINOMEscan analysis relative to control
[2] = target: cAMP-dependent protein kinase catalytic subunit alpha (Homo sapiens) (UniProt P17612); experiment: Inhibition of PKAC-alpha (unknown origin) assessed as residual activity at 100 nM by KINOMEscan analysis relative to control
[3] = target: T1, Serine/threonine-protein kinase Nek5 (Homo sapiens) (UniProt Q6P3R8); experiment: Inhibition of NEK5 (unknown origin) assessed as residual activity at 100 nM by KINOMEscan analysis relative to control
T1 sequence (whole entry): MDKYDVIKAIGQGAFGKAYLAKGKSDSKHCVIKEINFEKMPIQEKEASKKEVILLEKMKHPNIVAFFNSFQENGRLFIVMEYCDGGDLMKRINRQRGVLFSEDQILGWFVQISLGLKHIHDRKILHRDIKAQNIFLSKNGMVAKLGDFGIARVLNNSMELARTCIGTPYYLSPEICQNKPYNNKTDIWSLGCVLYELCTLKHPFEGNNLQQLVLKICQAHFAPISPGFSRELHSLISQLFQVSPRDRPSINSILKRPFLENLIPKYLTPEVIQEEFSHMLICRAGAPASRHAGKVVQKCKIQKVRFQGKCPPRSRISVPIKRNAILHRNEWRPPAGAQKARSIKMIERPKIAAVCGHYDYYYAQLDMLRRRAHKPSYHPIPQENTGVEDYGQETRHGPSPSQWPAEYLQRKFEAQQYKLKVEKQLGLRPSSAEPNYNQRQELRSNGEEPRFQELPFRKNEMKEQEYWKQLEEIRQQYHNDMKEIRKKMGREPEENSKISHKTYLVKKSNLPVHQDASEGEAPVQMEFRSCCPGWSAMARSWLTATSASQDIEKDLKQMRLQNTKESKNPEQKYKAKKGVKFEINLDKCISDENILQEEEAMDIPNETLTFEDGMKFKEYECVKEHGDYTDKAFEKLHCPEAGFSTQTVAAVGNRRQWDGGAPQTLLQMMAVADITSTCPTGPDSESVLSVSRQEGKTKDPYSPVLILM

[4] = species on record: Homo sapiens; experiment: Inhibition of N-terminal GST-tagged recombinant human SOS1 N879V mutant (564 to 1049 residues) expressed in Escherichia coli assessed as reduction in KRAS G12C mutant activation at 10 uM by HTRF analysis relative to control
[5] = target: Ephrin type-A receptor 7 (Homo sapiens) (UniProt Q15375); experiment: Inhibition of EPHA7 (unknown origin) assessed as residual activity at 100 nM by KINOMEscan analysis relative to control
[6] = target: T2, Serine/threonine-protein kinase DCLK1 (Homo sapiens) (UniProt O15075); experiment: Inhibition of DCAMKL1 (unknown origin) assessed as residual activity at 100 nM by KINOMEscan analysis relative to control
T2 sequence (whole entry): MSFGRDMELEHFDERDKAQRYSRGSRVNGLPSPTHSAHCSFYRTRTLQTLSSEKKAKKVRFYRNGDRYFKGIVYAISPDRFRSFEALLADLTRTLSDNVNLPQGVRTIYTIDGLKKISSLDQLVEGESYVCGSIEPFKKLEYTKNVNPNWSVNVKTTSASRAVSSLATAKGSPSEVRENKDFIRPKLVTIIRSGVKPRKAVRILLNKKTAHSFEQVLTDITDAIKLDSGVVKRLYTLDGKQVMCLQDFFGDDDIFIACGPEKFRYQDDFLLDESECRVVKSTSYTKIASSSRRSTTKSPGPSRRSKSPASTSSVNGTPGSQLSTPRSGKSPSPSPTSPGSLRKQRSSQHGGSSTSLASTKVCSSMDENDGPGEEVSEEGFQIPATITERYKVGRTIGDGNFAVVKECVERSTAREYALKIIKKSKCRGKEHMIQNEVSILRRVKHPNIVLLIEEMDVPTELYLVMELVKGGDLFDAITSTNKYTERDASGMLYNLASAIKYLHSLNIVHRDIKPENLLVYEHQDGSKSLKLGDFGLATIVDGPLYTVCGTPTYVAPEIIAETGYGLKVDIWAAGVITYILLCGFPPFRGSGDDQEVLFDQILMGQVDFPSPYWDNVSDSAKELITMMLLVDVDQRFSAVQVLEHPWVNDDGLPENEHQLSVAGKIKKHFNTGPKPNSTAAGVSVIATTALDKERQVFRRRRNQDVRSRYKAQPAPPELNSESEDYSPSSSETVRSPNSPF

[7] = target: Phosphatidylinositol 4-kinase beta (Homo sapiens) (UniProt Q9UBF8); experiment: Inhibition of PIK4CB (unknown origin) assessed as residual activity at 100 nM by KINOMEscan analysis relative to control
Sequence of Phosphatidylinositol 4-kinase beta (Homo sapiens) (Q9UBF8 2-816 limits assumed): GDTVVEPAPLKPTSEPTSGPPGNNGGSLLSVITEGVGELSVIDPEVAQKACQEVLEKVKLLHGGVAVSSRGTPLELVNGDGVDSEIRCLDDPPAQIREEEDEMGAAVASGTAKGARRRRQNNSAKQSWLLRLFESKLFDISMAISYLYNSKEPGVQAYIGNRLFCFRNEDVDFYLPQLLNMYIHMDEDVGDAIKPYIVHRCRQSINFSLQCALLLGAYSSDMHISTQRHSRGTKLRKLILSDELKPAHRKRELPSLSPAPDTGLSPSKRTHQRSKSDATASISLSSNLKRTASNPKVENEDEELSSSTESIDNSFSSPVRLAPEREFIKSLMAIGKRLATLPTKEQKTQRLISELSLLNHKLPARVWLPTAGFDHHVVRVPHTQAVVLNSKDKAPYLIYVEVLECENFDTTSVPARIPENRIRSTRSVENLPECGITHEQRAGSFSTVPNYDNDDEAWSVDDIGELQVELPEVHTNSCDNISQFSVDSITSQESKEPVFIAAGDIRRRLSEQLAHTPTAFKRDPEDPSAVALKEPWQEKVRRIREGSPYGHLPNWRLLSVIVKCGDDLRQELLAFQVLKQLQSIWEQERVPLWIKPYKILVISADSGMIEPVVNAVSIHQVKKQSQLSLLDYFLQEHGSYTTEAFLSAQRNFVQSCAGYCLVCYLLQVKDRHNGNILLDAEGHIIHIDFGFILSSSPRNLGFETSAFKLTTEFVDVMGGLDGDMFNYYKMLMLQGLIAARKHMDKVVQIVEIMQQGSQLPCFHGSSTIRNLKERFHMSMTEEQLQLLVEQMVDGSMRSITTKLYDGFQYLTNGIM

[8] = target: TRAF2 and NCK-interacting protein kinase (Homo sapiens) (UniProt Q9UKE5); experiment: Inhibition of TNIK (unknown origin) assessed as residual activity at 100 nM by KINOMEscan analysis relative to control
Sequence of TRAF2 and NCK-interacting protein kinase (Homo sapiens) (Q9UKE5 whole entry, looked up): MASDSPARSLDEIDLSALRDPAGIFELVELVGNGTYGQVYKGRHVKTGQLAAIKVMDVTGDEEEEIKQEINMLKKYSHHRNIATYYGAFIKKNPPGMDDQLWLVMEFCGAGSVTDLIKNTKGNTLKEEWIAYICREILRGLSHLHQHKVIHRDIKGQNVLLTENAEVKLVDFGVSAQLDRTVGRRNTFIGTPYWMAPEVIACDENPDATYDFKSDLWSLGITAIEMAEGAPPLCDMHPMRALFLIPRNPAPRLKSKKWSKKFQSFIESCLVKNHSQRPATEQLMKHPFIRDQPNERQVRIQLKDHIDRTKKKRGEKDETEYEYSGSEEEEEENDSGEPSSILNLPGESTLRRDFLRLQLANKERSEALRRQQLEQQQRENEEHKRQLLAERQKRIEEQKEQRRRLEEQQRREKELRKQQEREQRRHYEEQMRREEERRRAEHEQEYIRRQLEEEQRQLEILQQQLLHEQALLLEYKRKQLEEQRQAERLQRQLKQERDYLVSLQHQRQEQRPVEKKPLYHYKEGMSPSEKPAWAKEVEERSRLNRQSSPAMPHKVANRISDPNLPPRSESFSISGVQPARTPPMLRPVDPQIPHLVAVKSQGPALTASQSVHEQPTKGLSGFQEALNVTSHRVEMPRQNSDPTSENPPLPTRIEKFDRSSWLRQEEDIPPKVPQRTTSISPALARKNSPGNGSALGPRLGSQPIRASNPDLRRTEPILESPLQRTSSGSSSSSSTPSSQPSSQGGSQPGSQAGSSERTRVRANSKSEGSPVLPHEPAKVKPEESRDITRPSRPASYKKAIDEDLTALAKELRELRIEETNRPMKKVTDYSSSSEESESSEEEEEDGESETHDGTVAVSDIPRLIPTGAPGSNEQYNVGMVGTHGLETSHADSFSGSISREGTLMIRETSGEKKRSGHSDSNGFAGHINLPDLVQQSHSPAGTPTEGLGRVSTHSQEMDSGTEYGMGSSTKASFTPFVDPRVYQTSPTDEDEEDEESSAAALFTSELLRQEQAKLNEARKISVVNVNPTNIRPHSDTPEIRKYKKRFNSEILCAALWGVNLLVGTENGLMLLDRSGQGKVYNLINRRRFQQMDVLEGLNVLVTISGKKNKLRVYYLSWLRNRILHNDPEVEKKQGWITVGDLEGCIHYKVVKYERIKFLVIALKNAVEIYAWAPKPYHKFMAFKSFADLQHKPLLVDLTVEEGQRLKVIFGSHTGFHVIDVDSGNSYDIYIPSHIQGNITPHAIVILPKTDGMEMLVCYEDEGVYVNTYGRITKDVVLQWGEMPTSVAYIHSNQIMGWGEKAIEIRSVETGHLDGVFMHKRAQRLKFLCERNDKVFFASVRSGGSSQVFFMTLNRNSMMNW

[9] = target: Mitogen-activated protein kinase kinase kinase 12 (Homo sapiens) (UniProt Q12852); experiment: Inhibition of DLK (unknown origin) assessed as residual activity at 100 nM by KINOMEscan analysis relative to control
Sequence of Mitogen-activated protein kinase kinase kinase 12 (Homo sapiens) (Q12852 whole entry, looked up): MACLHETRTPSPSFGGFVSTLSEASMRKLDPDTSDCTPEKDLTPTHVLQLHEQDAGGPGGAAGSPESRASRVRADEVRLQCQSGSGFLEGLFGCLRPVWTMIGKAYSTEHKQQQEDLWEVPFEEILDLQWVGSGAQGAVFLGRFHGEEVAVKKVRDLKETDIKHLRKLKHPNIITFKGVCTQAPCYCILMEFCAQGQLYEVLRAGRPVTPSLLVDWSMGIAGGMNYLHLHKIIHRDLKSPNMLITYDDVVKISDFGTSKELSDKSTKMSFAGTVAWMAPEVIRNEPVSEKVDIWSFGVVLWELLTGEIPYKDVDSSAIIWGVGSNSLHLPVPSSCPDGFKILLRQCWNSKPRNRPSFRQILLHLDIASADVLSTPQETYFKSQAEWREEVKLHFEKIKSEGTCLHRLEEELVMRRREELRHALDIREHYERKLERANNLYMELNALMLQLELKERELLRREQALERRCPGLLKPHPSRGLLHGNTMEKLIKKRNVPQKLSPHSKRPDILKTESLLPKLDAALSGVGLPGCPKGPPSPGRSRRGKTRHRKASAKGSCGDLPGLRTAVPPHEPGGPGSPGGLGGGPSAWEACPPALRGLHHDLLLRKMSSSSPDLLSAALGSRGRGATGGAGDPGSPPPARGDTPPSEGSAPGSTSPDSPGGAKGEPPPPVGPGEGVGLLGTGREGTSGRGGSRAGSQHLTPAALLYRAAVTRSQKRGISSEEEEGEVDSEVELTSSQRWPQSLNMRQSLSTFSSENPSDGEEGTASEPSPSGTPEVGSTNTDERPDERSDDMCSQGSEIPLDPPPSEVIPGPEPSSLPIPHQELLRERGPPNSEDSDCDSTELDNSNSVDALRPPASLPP

[10] = target: Mitogen-activated protein kinase kinase kinase 14 (Homo sapiens) (UniProt Q99558); experiment: Inhibition of NIK (unknown origin) assessed as residual activity at 100 nM by KINOMEscan analysis relative to control
Sequence of Mitogen-activated protein kinase kinase kinase 14 (Homo sapiens) (Q99558 whole entry, looked up): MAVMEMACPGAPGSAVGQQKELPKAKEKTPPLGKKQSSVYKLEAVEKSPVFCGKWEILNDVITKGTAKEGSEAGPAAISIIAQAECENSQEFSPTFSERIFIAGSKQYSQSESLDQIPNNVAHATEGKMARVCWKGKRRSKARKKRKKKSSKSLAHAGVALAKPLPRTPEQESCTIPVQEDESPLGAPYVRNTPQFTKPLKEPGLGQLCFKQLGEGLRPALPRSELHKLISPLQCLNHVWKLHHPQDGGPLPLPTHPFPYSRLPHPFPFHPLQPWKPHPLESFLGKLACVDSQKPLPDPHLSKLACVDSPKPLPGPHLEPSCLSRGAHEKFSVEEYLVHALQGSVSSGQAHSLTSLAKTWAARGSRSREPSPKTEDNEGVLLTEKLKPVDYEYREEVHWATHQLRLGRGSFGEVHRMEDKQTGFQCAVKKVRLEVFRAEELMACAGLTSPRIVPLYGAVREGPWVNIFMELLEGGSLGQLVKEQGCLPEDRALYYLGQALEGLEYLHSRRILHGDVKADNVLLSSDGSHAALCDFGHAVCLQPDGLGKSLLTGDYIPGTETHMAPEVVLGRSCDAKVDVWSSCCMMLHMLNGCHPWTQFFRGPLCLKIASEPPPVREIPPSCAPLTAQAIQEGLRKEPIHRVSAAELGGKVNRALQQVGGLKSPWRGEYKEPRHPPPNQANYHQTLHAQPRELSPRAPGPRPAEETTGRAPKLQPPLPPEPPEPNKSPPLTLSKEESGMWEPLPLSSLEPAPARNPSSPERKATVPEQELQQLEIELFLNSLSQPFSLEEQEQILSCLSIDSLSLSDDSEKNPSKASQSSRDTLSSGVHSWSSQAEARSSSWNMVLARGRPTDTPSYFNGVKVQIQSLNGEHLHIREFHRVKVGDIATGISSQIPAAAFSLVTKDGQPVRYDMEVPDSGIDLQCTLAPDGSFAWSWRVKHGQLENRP

Sequence of Serine/threonine-protein kinase Nek6 (Homo sapiens) (Q9HC98 whole entry): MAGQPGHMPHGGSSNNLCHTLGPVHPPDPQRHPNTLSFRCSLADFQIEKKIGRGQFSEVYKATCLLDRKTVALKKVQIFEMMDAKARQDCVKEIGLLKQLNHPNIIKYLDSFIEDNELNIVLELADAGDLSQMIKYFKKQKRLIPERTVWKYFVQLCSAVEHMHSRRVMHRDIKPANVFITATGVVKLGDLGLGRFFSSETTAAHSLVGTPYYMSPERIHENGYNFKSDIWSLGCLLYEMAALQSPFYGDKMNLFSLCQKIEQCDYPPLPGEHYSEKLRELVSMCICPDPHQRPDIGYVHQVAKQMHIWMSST

Question: For `COc1cc2ncnc(N[C@H](C)c3cccc4ccccc34)c2cc1OC`, which Activity [1] is on record?
Answer: The Activity was 79%.

Question: What about the Activity [2] of the same molecule?
Answer: The Activity was 80%.

Question: What about the Activity [3] of the same molecule?
Answer: Its Activity is 31%.

Question: And the inhibition [4]?
Answer: Its inhibition is 51%.

Question: What about the Activity [5] of the same molecule?
Answer: Its Activity is 78%.

Question: What about the Activity [6] of the same molecule?
Answer: The Activity was 86%.

Question: What about the Activity [7] of the same molecule?
Answer: The Activity was 83%.

Question: What about the Activity [8] of the same molecule?
Answer: The Activity was 100%.

Question: And the Activity [9]?
Answer: Its Activity is 89%.

Question: And the Activity [10]?
Answer: Its Activity is 81%.

From ChEMBL document CHEMBL5678818, “Discovery of potent SOS1 inhibitors that block RAS activation via disruption of the RAS-SOS1 interaction” (Proc Natl Acad Sci U S A, 2019)
